Measured values: patent US10174083B2, “Aza-amino acid collagen compounds” (The Trustees of the University of Pennsylvania, priority 2016, dated 2019)

Test: Triple helix self-assembly by CD spectroscopy
Format: physicochemical
Protocol: Circular dichroism (CD) spectroscopy was used to evaluate self-assembly of the triple helix for each of our collagen model peptides. […] The data from CD thermal denaturation experiments were fitted to a two-state model, as previously described.
Purified peptides were incubated in PBS buffer for at least 24 hours. […] The data from CD thermal denaturation experiments were fitted to a two-state model as previously described.^12,13 The melting temperatures (Tm), at which 50% of the triple helix unfolds, are listed next to the peptides in FIG. 11.
Resulting peptide 5 was purified by HPLC and incubated at a concentration of 0.2 mM in PBS buffer (pH 7) for 24 h.
Multiple aza-Proline residues: Finally, we determined the number of stereodynamic center (i.e., AzProHypGly trimer) that can be incorporated into a collagen model peptide without perturbing the triple-helix formation.

Substance: (GPO)4
- triple helix formation / self-assembly: does not
